Assay results reported in patent publication US8815872B2, “Macrocyclics pyrimidines as aurora kinase inhibitors” (Merck Patent GmbH, priority 2008, dated 2014).

Tests used:
Assay in all cases: Other kinases, inhibition at 1 μM (Table 3)
Assay type in all cases: biochemical
ROCK-II = biological target: T1, ROCK-II (Homo sapiens, UniProt O75116)
T1 construct: purchased Caliper Life Sciences
Description: (§1) The Aurora and other kinase assays described here were performed on two Caliper Life Sciences systems, the LC3000 and the Desktop Profiler. These provide data on enzyme activity via measurement of the relative amounts of phosphorylated or unphosphorylated fluorescently labelled substrate peptide at the end of an enzymatic reaction. These different states of peptide are resolved by applying a potential difference across the sample. The presence of a charged phosphate group on the product (as opposed to the substrate) causes a different peptide mobility between the two peptides. This is visualized by excitation of a fluorescent label on the substrate and product peptides and represented as peaks within the analysis software.
(§2) The Desktop Profiler utilizes the same principal as the LC 3000 for calculating percentage conversion of a substrate to product. Caliper Life Sciences provided proprietary flash frozen pre-made 384 well plates containing selected kinases. Each column in the 384 well plate contained a particular selected kinase. A second plate, the ‘substrate plate’ contained a mix of fluorescently labeled peptide substrate and ATP. These were arranged in columns so that transfer for substrate plate to enzyme plate provided the correct enzyme with the correct substrate/ATP concentration.
(§3) Compounds were added to a thawed enzyme plate in the desired format, in single concentrations. Reactions were initiated by transfer of the ubstrate/ATP mix from the substrate plate. The enzyme plate was incubated for 90 mins at 25 °C. The reaction was stopped by addition of […] of Stop Buffer (100 mM HEPES pH 7.5, 0.015% Brij-35, 10 mM EDTA (Sigma, E7889)).
(§4) Plates were read in a manner identical to that of the LC3000, and the ratio between substrate and product peaks provided the activity of the enzyme in that well. This was best represented by a plate heat map which colors each well by percent inhibition as compared to positive and negative controls (no inhibitors and no ATP respectively).

HIPK2 = biological target: T2, HIPK2 (Homo sapiens, UniProt Q9H2X6)
T2 construct: purchased Caliper Life Sciences
Description: as §1, §2, §3, §4

SAPK4 = biological target: T3, SAPK4 (Homo sapiens, UniProt O15264)
T3 construct: purchased Caliper Life Sciences
Description: as §1, §2, §3, §4

EphA2 = biological target: T4, EphA2 (Homo sapiens, UniProt P29317)
T4 construct: purchased Caliper Life Sciences
T4 sequence (P29317 24-976, species assumed): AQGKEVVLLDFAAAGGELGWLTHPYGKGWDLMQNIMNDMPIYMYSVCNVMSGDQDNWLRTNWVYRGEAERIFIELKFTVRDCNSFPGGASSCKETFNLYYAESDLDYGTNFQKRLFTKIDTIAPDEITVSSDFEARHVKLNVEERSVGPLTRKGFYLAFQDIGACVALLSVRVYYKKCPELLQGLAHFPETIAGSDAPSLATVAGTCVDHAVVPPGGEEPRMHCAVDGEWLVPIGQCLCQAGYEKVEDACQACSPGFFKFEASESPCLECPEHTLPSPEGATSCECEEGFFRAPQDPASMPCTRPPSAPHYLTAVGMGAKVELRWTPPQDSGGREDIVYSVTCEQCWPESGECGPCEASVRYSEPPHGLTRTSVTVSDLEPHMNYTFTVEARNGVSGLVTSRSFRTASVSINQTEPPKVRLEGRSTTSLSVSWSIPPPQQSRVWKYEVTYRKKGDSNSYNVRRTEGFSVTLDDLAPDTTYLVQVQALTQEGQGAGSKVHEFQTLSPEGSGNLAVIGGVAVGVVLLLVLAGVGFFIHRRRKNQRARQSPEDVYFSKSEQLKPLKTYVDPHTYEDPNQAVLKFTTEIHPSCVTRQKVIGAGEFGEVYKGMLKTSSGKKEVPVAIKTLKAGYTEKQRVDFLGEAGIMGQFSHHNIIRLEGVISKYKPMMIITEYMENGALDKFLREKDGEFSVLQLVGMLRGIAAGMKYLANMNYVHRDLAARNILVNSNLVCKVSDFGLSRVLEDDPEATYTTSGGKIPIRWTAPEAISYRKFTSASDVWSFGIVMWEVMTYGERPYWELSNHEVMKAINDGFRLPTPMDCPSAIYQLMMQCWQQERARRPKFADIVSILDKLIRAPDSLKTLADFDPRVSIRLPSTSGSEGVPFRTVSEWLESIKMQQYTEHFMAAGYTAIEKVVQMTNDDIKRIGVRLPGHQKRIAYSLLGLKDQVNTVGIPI
Description: as §1, §2, §3, §4

MAPKAP-K2 = biological target: T5, MAPKAP-K2 (Homo sapiens, UniProt P49137)
T5 construct: purchased Caliper Life Sciences
T5 sequence (P49137 whole entry, species assumed): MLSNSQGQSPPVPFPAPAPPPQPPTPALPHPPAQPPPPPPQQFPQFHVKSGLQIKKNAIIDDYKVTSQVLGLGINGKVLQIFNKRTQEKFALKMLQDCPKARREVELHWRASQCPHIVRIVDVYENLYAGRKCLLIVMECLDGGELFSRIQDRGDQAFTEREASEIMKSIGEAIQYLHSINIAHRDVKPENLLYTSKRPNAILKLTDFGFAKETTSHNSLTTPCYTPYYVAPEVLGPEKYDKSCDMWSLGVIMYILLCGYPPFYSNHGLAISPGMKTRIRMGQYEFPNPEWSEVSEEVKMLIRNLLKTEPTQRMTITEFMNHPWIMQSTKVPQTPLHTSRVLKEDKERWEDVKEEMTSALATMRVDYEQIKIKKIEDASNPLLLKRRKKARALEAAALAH
Description: as §1, §2, §3, §4

PAK6 = biological target: T6, PAK6 (Homo sapiens, UniProt Q9NQU5)
T6 construct: purchased Caliper Life Sciences
T6 sequence (Q9NQU5 whole entry, species assumed): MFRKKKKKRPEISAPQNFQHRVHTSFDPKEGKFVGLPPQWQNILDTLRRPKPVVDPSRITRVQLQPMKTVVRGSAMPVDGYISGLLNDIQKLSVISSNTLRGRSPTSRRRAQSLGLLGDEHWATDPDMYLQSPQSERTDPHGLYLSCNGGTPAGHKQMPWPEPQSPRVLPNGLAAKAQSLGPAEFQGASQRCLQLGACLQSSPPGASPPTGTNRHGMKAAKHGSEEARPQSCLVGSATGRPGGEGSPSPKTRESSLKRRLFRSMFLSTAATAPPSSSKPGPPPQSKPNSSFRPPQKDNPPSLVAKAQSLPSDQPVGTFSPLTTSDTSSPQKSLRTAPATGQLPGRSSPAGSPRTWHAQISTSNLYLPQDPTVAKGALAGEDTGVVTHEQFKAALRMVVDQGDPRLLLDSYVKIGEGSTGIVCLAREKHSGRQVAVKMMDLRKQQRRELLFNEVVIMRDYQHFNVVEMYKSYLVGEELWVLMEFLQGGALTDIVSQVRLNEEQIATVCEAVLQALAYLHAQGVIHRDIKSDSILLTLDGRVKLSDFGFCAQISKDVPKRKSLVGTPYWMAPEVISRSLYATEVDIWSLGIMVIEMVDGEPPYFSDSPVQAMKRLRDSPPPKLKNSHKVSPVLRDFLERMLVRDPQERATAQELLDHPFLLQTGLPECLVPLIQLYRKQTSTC
Description: as §1, §2, §3, §4

BRSK2 = biological target: T7, BRSK2 (Homo sapiens, UniProt Q8IWQ3)
T7 construct: purchased Caliper Life Sciences
Description: as §1, §2, §3, §4

MST2 = biological target: T8, MST2 (Homo sapiens, UniProt Q13188)
T8 construct: purchased Caliper Life Sciences
Description: as §1, §2, §3, §4

MAPK8 = tested on: MAPK8
Description: as §1, §2, §3, §4

CHK1 = biological target: T9, CHK1 (Homo sapiens, UniProt O14757)
T9 construct: purchased Caliper Life Sciences
Description: as §1, §2, §3, §4

EF2K = biological target: T10, EF2K (Homo sapiens, UniProt O00418)
T10 construct: purchased Caliper Life Sciences
Description: as §1, §2, §3, §4

GSK3-beta = biological target: T11, GSK3-beta (Homo sapiens, UniProt P49841)
T11 construct: purchased Caliper Life Sciences
T11 sequence (P49841 whole entry, species assumed): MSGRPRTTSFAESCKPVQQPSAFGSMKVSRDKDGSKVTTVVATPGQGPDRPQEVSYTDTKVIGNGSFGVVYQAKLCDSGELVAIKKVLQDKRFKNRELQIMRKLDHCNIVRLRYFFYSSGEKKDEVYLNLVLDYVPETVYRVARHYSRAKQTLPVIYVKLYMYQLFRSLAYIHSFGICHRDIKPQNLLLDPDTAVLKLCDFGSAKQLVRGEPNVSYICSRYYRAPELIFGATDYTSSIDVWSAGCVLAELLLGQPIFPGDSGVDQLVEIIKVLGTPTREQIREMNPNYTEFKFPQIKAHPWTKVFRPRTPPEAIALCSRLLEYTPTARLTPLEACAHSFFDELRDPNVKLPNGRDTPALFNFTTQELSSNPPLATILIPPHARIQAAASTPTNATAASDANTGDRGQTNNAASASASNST
Description: as §1, §2, §3, §4

PKC-zeta = biological target: T12, PKC-zeta (Homo sapiens, UniProt Q05513)
T12 construct: purchased Caliper Life Sciences
Description: as §1, §2, §3, §4

DYRK3 = biological target: T13, DYRK3 (Homo sapiens, UniProt O43781)
T13 construct: purchased Caliper Life Sciences
Description: as §1, §2, §3, §4

Nek2a = biological target: T14, Nek2a (Homo sapiens, UniProt P51955)
T14 construct: purchased Caliper Life Sciences
Description: as §1, §2, §3, §4

YES1 = biological target: T15, YES1 (Homo sapiens, UniProt P07947)
T15 construct: purchased Caliper Life Sciences
Description: as §1, §2, §3, §4

MNK-2-alpha = biological target: T16, MNK-2-alpha (Homo sapiens, UniProt Q9HBH9)
T16 construct: purchased Caliper Life Sciences
T16 sequence (Q9HBH9 whole entry): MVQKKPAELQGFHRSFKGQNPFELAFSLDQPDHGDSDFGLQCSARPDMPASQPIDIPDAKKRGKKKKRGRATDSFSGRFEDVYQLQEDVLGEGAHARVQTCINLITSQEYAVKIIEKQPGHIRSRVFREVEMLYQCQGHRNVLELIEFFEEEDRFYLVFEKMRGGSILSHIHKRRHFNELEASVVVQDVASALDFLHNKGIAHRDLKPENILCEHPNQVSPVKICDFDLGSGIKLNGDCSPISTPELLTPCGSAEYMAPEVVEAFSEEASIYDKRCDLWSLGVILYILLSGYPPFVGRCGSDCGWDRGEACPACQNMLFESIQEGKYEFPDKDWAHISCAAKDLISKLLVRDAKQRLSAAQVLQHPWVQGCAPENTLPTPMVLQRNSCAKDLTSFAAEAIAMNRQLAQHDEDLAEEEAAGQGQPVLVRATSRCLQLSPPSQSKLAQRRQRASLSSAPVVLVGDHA
Description: as §1, §2, §3, §4

MAPK2 = biological target: T17, MAPK2 (Homo sapiens, UniProt P28482)
T17 construct: purchased Caliper Life Sciences
Description: as §1, §2, §3, §4

IKK-epsilon = biological target: T18, IKK-epsilon (Homo sapiens, UniProt Q14164)
T18 construct: purchased Caliper Life Sciences
T18 sequence (Q14164 whole entry, species assumed): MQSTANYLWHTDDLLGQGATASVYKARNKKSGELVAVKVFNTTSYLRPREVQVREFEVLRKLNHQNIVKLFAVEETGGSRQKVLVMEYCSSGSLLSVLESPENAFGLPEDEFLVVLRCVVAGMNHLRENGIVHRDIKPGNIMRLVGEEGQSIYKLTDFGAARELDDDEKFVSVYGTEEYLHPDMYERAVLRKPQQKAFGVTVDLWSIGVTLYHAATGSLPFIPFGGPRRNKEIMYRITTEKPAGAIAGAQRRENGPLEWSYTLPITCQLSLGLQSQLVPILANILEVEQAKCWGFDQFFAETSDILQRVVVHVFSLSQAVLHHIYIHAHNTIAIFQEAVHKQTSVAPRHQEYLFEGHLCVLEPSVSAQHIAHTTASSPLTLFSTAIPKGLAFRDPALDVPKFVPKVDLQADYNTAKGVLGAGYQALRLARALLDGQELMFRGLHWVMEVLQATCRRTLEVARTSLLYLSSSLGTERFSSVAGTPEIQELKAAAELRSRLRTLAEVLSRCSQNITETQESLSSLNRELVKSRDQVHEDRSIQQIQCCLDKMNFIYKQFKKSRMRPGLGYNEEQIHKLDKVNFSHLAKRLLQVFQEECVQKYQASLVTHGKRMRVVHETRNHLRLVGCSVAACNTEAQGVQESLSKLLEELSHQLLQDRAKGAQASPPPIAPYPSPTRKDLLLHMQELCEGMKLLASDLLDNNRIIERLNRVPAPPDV
Description: as §1, §2, §3, §4

Pim-1 = biological target: T19, Pim-1 (Homo sapiens, UniProt P11309)
T19 construct: purchased Caliper Life Sciences
Description: as §1, §2, §3, §4

PKC-alpha = biological target: T20, PKC-alpha (Homo sapiens, UniProt P17252)
T20 construct: purchased Caliper Life Sciences
Description: as §1, §2, §3, §4

BTK = biological target: T21, BTK (Homo sapiens, UniProt Q06187)
T21 construct: purchased Caliper Life Sciences
Description: as §1, §2, §3, §4

PAK4 = biological target: T22, PAK4 (Homo sapiens, UniProt O96013)
T22 construct: purchased Caliper Life Sciences
Description: as §1, §2, §3, §4

SGK = biological target: T23, SGK (Homo sapiens, UniProt O00141)
T23 construct: purchased Caliper Life Sciences
Description: as §1, §2, §3, §4

IGF1-R = biological target: T24, IGF1-R (Homo sapiens, UniProt P08069)
T24 construct: purchased Caliper Life Sciences
Description: as §1, §2, §3, §4

IKK-beta = biological target: T25, IKK-beta (Homo sapiens, UniProt O14920)
T25 construct: purchased Caliper Life Sciences
Description: as §1, §2, §3, §4

EphB3 = biological target: T26, EphB3 (Homo sapiens, UniProt P54753)
T26 construct: purchased Caliper Life Sciences
Description: as §1, §2, §3, §4

MAPKAP-K1-alpha = biological target: T27, MAPKAP-K1-alpha (Homo sapiens, UniProt Q15418)
T27 construct: purchased Caliper Life Sciences
Description: as §1, §2, §3, §4

PKB-alpha = biological target: T28, PKB-alpha (Homo sapiens, UniProt P31749)
T28 construct: purchased Caliper Life Sciences
Description: as §1, §2, §3, §4

PDK1 = biological target: T29, PDK1 (Homo sapiens, UniProt O15530)
T29 construct: purchased Caliper Life Sciences
Description: as §1, §2, §3, §4

Pim-3 = biological target: T30, Pim-3 (Homo sapiens, UniProt Q86V86)
T30 construct: purchased Caliper Life Sciences
Description: as §1, §2, §3, §4

CAMKI = biological target: T31, CAMKI (Homo sapiens, UniProt Q14012)
T31 construct: purchased Caliper Life Sciences
T31 sequence (Q14012 whole entry, species assumed): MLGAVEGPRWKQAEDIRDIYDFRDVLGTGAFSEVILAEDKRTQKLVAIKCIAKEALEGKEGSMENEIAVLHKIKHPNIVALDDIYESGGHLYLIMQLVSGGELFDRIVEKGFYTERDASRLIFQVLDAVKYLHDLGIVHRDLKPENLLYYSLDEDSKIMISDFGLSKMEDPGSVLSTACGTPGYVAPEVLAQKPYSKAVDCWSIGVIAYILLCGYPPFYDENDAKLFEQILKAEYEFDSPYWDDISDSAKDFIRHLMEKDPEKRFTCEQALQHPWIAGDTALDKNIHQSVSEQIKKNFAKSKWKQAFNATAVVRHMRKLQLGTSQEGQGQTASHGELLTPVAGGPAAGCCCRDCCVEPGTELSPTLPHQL
Description: as §1, §2, §3, §4

JNK1-alpha-1 = biological target: T32, JNK1-alpha-1 (Homo sapiens, UniProt P45983)
T32 construct: purchased Caliper Life Sciences
Description: as §1, §2, §3, §4

PKB-beta = biological target: T33, PKB-beta (Homo sapiens, UniProt P31751)
T33 construct: purchased Caliper Life Sciences
Description: as §1, §2, §3, §4

Structure (SMILES)	inhibition at 1 µM (ROCK-II)	inhibition at 1 µM (HIPK2)	inhibition at 1 µM (SAPK4)	inhibition at 1 µM (EphA2)	% inhibition MAPKAP-K2 (MAPKAP-K2)	% inhibition PAK6 (PAK6)	inhibition at 1 µM (BRSK2)	% inhibition MST2 (MST2)	% inhibition MAPK8 (MAPK8)	% inhibition CHK1 (CHK1)	inhibition at 1 µM (EF2K)	inhibition at 1 µM (GSK3-beta)	% inhibition PKC-zeta (PKC-zeta)	inhibition at 1 µM (DYRK3)	% inhibition Nek2a (Nek2a)	inhibition at 1 µM (YES1)	% inhibition MNK-2-alpha (MNK-2-alpha)	% inhibition MAPK2 (MAPK2)	inhibition at 1 µM (IKK-epsilon)	% inhibition Pim-1 (Pim-1)	further results
Fc1cnc2nc1NC1CCCC(C1)OC/C=C\COc1cccc(c1)N2 (single isomer, unassigned) [Example 33, (16Z)-6-fluoro-14,19-dioxa-2,4,8,26-tetraazatetracyclo[18.3.1.1˜3,7˜0.1˜9,13˜]hexacosa-1(24),3(26),4,6,16,20,22-heptaene]	79%	68%	79%	81%	100%	90%	81%	61%	61%	98%	78%	57%	104%	99%	82%	49%	81%	79%	91%	65%	% inhibition PKC-alpha (PKC-alpha): 57%; % inhibition BTK (BTK): 37%; % inhibition PAK4 (PAK4): 81%; inhibition at 1 µM (SGK): 87%; inhibition at 1 µM (IGF1-R): 82%; inhibition at 1 µM (IKK-beta): 78%; inhibition at 1 µM (EphB3): 54%; % inhibition MAPKAP-K1-alpha (MAPKAP-K1-alpha): 56%; % inhibition PKB-alpha (PKB-alpha): 85%; % inhibition PDK1 (PDK1): 91%; % inhibition Pim-3 (Pim-3): 84%; % inhibition CAMKI (CAMKI): 93%; inhibition at 1 µM (JNK1-alpha-1): 75%; % inhibition PKB-beta (PKB-beta): 85%
NC(=O)[C@H]1[C@H]2C[C@H]3[C@H]1Nc1nc(ncc1F)Nc1cccc(c1)CSS[C@@H]3C2 [Example 10]	75%	23%	44%	25%	88%	81%	26%	8%	9%	73%	62%	19%	99%	78%	66%	9%	82%	90%	75%	61%	% inhibition PKC-alpha (PKC-alpha): 56%; % inhibition BTK (BTK): 2%; % inhibition PAK4 (PAK4): 38%; inhibition at 1 µM (SGK): 82%; inhibition at 1 µM (IGF1-R): 2%; inhibition at 1 µM (IKK-beta): 82%; inhibition at 1 µM (EphB3): 4%; % inhibition MAPKAP-K1-alpha (MAPKAP-K1-alpha): 12%; % inhibition PKB-alpha (PKB-alpha): 93%; % inhibition PDK1 (PDK1): 73%; % inhibition Pim-3 (Pim-3): 63%; % inhibition CAMKI (CAMKI): 73%; inhibition at 1 µM (JNK1-alpha-1): 14%; % inhibition PKB-beta (PKB-beta): 101%
